Assay results reported in patent US20230047788A1, “COMPOSITIONS COMPRISING 5-CHOLESTEN-3, 25-DIOL, 3-SULFATE (25HC3S) OR PHARMACEUTICALLY ACCEPTABLE SALT THEREOF AND AT LEAST ONE CYCLIC OLIGOSACCHARIDE” (Virginia Commonwealth University, priority 2016, published 2023).
“And” between values parts separate entries of the source, which are not always exact repeats. Equal entries are not always repeated. Where two headings read alike, the source gives them in different places.

Columns and labels:
[1] = dog, in vivo
Protocol: Injection routes of administration used were intramuscular, intravenous or subcutaneous. The following example is a representative injection study.
Beagle dogs (n=5/dose group) received a single intravenous bolus injection or a single subcutaneous injection. The parenteral solution that was tested included 25 mg/mL of 25HC3S sodium salt in vehicle (200 mg/mL hydroxypropyl betadex with 10 mM sodium phosphate buffers, in water). The intravenous dose level of 2.5 mg/kg was administered in a dose volume of 0.1 mL/kg whereas the subcutaneous injection dose level of 20 mg/kg was administered in a dose volume of 0.8 mL/kg. Whole blood samples were collected at pre-dose, 0.5, 1, 2, 4, 8, 12, 24, 32 and 48 hours (h) post dose and the resulting plasma samples underwent analyses to quantify 25HC3S levels. During the in-life period, animals were observed daily for mortality and moribundity with clinical examinations conducted daily.

[2] = test system: GI-ARS model (partial shielding irradiation); assay: Clinical signs and survival in rodent model of gastrointestinal acute radiation syndrome (GI-ARS); type: in vivo, C57BL/6J mice
Protocol: The subjects for the two studies outlined here were (A) Study 1: 20 male C57BL/6J mice (8 weeks of age; 23-28 g) and (B) Study 2: 16 male C57BL/6J mice (8 weeks of age; 23-28 g). Following arrival, all animals were subjected to a health assessment and evaluation was performed in accordance with the standard operating procedures and by technical staff working under the supervision of the clinical veterinarian. An acclimation period of at least 11 days was allowed between receipt of the animals and irradiation to accustom the animals to the laboratory environment.
A solution formulation of 25HC3S sodium salt and its respective vehicle was used for the study. The Vehicle was a solution of 4% (w/v) hydroxypropyl betadex in 75% (v/v) of 0.9% (w/v) sodium chloride and 25% (v/v) sterile water. 25HC3S sodium salt was pre-dissolved into the Vehicle solution to result in a drug concentration of 5 mg/mL. The 25HC3S solution was ready-to-use at the start of dosing. In Study 1, the vehicle was stored at 2-8° C. whereas the 25HC3S solution was stored at room temperature prior and throughout the study duration; in Study 2, both vehicle and 25HC3S solutions were stored at 2-8° C.
Partial shielding irradiation (PSI) exposure at a high radiation dose (>10Gy) is an established approach to mimic GI-ARS in mice. Animals were exposed to whole-body irradiation with partial shielding (Day 0) in a custom designed restrainer where their left pelvic limb was extended and maintained in position with an elastic band. The left pelvic limb was shielded with a cerrobend structure. Animals received a whole body irradiation dose with partial shielding of 15.78 Gy (LD50/22) for Study 1 whereas mice were exposed to 15.16 Gy (LD25/22) in Study 2. The dose rate of the ^60Co gamma source was fixed at approximately 60 cGy per minute. The in-life portion of both the studies after PSI was 22 days.
Study 1: Mice (N=20/group) were administered once daily with 25HC3S (or vehicle) for 7 consecutive days starting on the day following irradiation (Day 1) by subcutaneous injection between scapulas using a 27G needle attached to a syringe. The dose volume was 10 mL/kg for all dose routes and the dose was adjusted based on the most recent body weight. Study 2: Mice (N=16/group) were administered with 25HC3S (or vehicle) for a total of […]. Animals were given drug (or vehicle) once on the day following irradiation (Day 1) and once on Day 4 by subcutaneous injection between scapulas using a 27G needle attached to a syringe. The dose volume was 10 mL/kg for all dose routes and the dose was adjusted based on the most recent body weight.
Mortality checks were recorded concomitantly with the cage-side observations, during all phases of the study. Mortality checks for all animals were also recorded at least once during the night from Day 5 through Day 8. Clinical signs (ill health, behavioral changes, fur color/consistency changes etc.) were also recorded on all surviving animals twice daily throughout observation period (described in Table 10). Additional clinical observations were performed when deemed necessary. All observations were recorded as cage side clinical signs or detailed clinical examination when possible. A detailed clinical examination was performed on each animal at least as follows: prior to animal assignment, one day prior to irradiation (Day −1) then every 3 days throughout the observation period. […]

[3] = Solubility of 25HC3S in water as function of HPbCD or SBECD concentration at room temperature; type: physicochemical; conditions: for 25HC3S Solubility / Molar of 25HC3S: room temperature
Protocol: A total of six suspensions of 25HC3S sodium salt were prepared in water containing 0, 50, 100, 200, 250 and 400 mg/mL hydroxypropyl-β-cyclodextrin (HPbCD, hydroxypropyl betadex) or sulfobutyl ether β-cyclodextrin (SBECD, Captisol®). Both cyclodextrins are used in approved pharmaceutical products and are manufactured as Good Manufacturing Practice (GMP) excipients. Each suspension was agitated at room temperature, aliquots were centrifuged, and the supernatant solutions assayed for 25HC3S concentrations by a reverse phase HPLC method. The solubility data of 25HC3S as a function of HPbCD concentrations is in Table 1 and as a function of SBECD concentrations is in Table 2.

C[C@H](CCCC(C)(C)O)[C@H]1CC[C@H]2[C@@H]3CC=C4C[C@@H](OS(=O)(=O)[O-])CC[C@]4(C)[C@H]3CC[C@]12C.[Na+] [25HC3S, 5-cholesten-3, 25-diol, 3-sulfate]
AUCall, Mean (SD) ([1]; iv): 489 (464) ng * hr/mL
Cmax ([1]; iv): 439 ng/mL
Tmax, Mean (SD) ([1]; iv): 0.5 (0) hr
Cmax ([1]; iv, 2.5 mg/kg): 439 ng/mL
mean AUClast ([1]; iv, 2.5 mg/kg): 478 ng·h/mL
plasma levels at 8h ([1]; iv, 2.5 mg/kg): no observable levels in most animals (n=4)
time point of maximal concentration ([1]; iv, 2.5 mg/kg): 0.5 h
AUCall, Mean (SD) ([1]; sc): 19676 (3716) ng * hr/mL
Cmax ([1]; sc): 3940 ng/mL
Tmax, Mean (SD) ([1]; sc): 1.8 (1.3) hr
observed bioavailability ([1]; sc): 0.7
AUClast ([1]; sc, 20 mg/kg): 19503 ng·h/mL
Cmax ([1]; sc, 20 mg/kg): 3936 ng/mL
Survival ([2]; Study 1, 15.78 Gy, by Day 7): 45%
mortality, treatment vs vehicle group ([2]; Study 1, 15.78 Gy, sc once daily for 7 days from Day 1): not significant
average number of clinical signs/mice vs vehicle-treated group ([2]; Study 1, Days 5-22, animals that survived the entire in-life portion): statistically lower
Survival improved by (vs vehicle) ([2]; Study 2, 15.16 Gy): 18.75%
Survival ([2]; Study 2, 15.16 Gy, sc doses on Day 1 and Day 4, 50 mg/kg/dose): 81.25%
25HC3S Solubility ([3]; 50 mg/mL HPbCD in water): 9.78 mg/mL
Molar of 25HC3S ([3]; 50 mg/mL HPbCD in water): 0.01938 Molar
25HC3S Solubility ([3]; 50 mg/mL SBECD in water): 6.03 mg/mL
Molar of 25HC3S ([3]; 50 mg/mL SBECD in water): 0.01195 Molar
25HC3S Solubility ([3]; 100 mg/mL HPbCD in water): 18.44 mg/mL
Molar of 25HC3S ([3]; 100 mg/mL HPbCD in water): 0.03654 Molar
25HC3S Solubility ([3]; 100 mg/mL SBECD in water): 9.86 mg/mL
Molar of 25HC3S ([3]; 100 mg/mL SBECD in water): 0.01954 Molar
25HC3S Solubility ([3]; 200 mg/mL HPbCD in water): 31.97 mg/mL
Molar of 25HC3S ([3]; 200 mg/mL HPbCD in water): 0.06334 Molar
25HC3S Solubility ([3]; 200 mg/mL SBECD in water): 21.24 mg/mL
Molar of 25HC3S ([3]; 200 mg/mL SBECD in water): 0.04208 Molar
25HC3S Solubility ([3]; 250 mg/mL HPbCD in water): 42.37 mg/mL
Molar of 25HC3S ([3]; 250 mg/mL HPbCD in water): 0.08395 Molar
25HC3S Solubility ([3]; 400 mg/mL HPbCD in water): 66 mg/mL and 65.18 mg/mL
Molar of 25HC3S ([3]; 400 mg/mL HPbCD in water): 0.1291 Molar
25HC3S Solubility ([3]; 400 mg/mL SBECD in water): 44.76 mg/mL
Molar of 25HC3S ([3]; 400 mg/mL SBECD in water): 0.08869 Molar
relative amounts of HPbCD needed to solubilize 25HC3S (ratio) ([3]; mg/mL basis, water): 6 to 1
25HC3S Solubility ([3]; water, 0 mg/mL cyclodextrin): 0.14 mg/mL
Molar of 25HC3S ([3]; water, 0 mg/mL cyclodextrin): 0.00028 Molar
